Test [1] deals with Histone deacetylase. Put plainly: Inhibition of HDAC in human HeLa cell nuclear extracts using Ac-NH-GGK(Ac)-AMC as substrate after 180 mins by fluorescence assay. It is filed as protein assay.
In test [2] the target is Histone deacetylase. The test is described as follows: Inhibition of HDAC in human HeLa cells using Boc-K(Ac)-AMC as substrate preincubated for 4 hrs before substrate addition measured after 3 hrs by fluorescence assay. It is filed as cell-based.
For test [3], the target named is T1, Histone deacetylase 1 (Homo sapiens, UniProt Q13547). The test is described as follows: Inhibition of human recombinant HDAC1 expressed in human HEK293 cells using Ac-NH-GGK(Ac)-AMC as substrate after 180 mins by fluorescence assay.
Test [4] deals with T2, Histone deacetylase 3 (Homo sapiens, UniProt O15379). The test is described as follows: Inhibition of human recombinant HDAC3 expressed in Sf21 insect cells using Ac-NH-GGK(Ac)-AMC as substrate after 180 mins by fluorescence assay.
Test [5] addresses T3, Protein deacetylase HDAC6 (Homo sapiens, UniProt Q9UBN7).
T3 sequence (Q9UBN7 whole entry): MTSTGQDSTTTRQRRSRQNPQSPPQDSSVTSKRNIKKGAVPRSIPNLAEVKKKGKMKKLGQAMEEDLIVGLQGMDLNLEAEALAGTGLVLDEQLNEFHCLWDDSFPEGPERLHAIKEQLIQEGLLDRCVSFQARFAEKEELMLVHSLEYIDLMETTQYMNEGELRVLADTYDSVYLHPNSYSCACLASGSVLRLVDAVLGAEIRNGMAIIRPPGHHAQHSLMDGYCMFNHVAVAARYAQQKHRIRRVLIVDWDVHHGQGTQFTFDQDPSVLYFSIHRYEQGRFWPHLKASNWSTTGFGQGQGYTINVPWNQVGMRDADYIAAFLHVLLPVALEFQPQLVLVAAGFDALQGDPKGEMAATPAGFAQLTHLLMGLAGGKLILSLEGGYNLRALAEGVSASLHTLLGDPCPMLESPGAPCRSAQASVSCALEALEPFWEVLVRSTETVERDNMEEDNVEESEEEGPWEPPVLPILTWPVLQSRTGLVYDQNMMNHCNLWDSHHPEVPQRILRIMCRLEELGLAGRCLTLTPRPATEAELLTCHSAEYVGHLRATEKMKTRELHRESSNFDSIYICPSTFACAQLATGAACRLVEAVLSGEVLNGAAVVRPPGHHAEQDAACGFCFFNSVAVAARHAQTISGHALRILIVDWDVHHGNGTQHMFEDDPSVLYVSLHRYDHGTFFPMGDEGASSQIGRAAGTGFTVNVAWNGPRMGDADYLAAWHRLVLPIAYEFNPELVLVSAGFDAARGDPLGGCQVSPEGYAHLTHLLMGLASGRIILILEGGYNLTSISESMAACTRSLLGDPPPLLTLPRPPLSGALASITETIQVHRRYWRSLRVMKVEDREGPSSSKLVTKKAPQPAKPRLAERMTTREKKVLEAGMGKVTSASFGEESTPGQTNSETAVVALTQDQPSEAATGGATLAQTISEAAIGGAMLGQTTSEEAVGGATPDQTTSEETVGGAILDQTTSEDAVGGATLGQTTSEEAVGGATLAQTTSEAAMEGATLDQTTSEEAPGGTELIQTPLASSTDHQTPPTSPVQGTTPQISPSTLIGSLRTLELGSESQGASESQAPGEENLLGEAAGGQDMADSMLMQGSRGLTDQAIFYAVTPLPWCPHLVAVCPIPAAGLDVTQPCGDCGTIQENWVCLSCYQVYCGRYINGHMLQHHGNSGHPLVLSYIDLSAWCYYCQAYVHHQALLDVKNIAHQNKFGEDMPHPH
The test is described as follows: Inhibition of human recombinant HDAC6 expressed in human HEK293 cells using Ac-NH-GGK(Ac)-AMC as substrate after 180 mins by fluorescence assay.

For test [6], the target named is T4, Histone deacetylase 8 (Homo sapiens, UniProt Q9BY41).
T4 sequence (Q9BY41 whole entry): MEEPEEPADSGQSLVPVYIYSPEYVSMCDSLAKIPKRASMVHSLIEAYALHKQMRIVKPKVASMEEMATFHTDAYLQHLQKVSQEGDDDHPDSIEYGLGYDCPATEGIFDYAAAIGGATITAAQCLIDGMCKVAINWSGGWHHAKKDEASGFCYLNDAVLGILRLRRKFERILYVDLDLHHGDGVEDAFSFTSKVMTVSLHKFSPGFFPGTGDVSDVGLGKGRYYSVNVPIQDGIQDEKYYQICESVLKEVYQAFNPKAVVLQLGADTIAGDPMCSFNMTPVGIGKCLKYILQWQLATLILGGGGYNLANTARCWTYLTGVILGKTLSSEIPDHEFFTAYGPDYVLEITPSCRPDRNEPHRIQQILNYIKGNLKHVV
Put plainly: Inhibition of human recombinant HDAC8 expressed in Sf21 insect cells using Ac-NH-GGK(Ac)-AMC as substrate after 180 mins by fluorescence assay.

For test [7], the target named is T5, Histone deacetylase (Homo sapiens) (UniProt Q13547+O15379+Q9UBN7+Q92769+Q9UQL6+Q8WUI4+Q9BY41+Q96DB2+P56524+Q9UKV0+Q969S8). The test is described as follows: Inhibition of HDAC in human HeLa cell nuclear extracts using Ac-NH-GGK(Ac)-AMC as substrate after 180 mins by fluorescence assay relative to control. It is filed as protein assay.
For test [8], the target named is T2, Histone deacetylase 3. Put plainly: Inhibition of human recombinant HDAC3 expressed in Sf21 insect cells using Ac-NH-GGK(Ac)-AMC as substrate after 180 mins by fluorescence assay relative to control.
For test [9], the target named is Epidermal growth factor receptor (Homo sapiens, UniProt P00533). The test is described as follows: Inhibition of recombinant EGFR (unknown origin) using poly-Glu-Tyr peptide as substrate.
The target in test [10] is Receptor tyrosine-protein kinase erbB-2 (Homo sapiens, UniProt P04626). The test is described as follows: Inhibition of recombinant HER2 (unknown origin) using poly-Glu-Tyr peptide as substrate.
Test [11] concerns the target Platelet-derived growth factor receptor beta (Homo sapiens, UniProt P09619). The test is described as follows: Inhibition of recombinant PDGFRbeta (unknown origin) using poly-Glu-Tyr peptide as substrate.
Test [12] deals with Insulin receptor (Homo sapiens, UniProt P06213). Put plainly: Inhibition of recombinant InsR (unknown origin) using poly-Glu-Tyr peptide as substrate.
Test [13] concerns the target Tyrosine-protein kinase ABL1 (Homo sapiens, UniProt P00519). Put plainly: Inhibition of recombinant Abl1 (unknown origin) using poly-Glu-Tyr peptide as substrate.
In test [14] the target is Cyclin-dependent kinase 2 (Homo sapiens, UniProt P24941). The test is described as follows: Inhibition of recombinant CDK2 (unknown origin) using poly-Glu-Tyr peptide as substrate.
Test [15] in a line: Inhibition of recombinant PKA (unknown origin) using poly-Glu-Tyr peptide as substrate. Also on record: species or system Homo sapiens.
Test [16] addresses Serine/threonine-protein kinase PLK1 (Homo sapiens, UniProt P53350). The test is described as follows: Inhibition of recombinant Plk1 (unknown origin) using poly-Glu-Tyr peptide as substrate.
The test system of test [17] is HeLa. Put plainly: Cytotoxicity against human HeLa cells by Alamar Blue assay. It is filed as functional, cell-based. (In general: Alamar Blue is a resazurin reagent that responds to reducing activity.)
The test system of test [18] is A549. Put plainly: Cytotoxicity against human A549 cells by Alamar Blue assay. It is filed as functional, cell-based.
The test system of test [19] is A-431. Put plainly: Cytotoxicity against human A431 cells by Alamar Blue assay. It is filed as functional, cell-based.
Test [20] in a line: Cytotoxicity against human CAL27 cells by Alamar Blue assay. It is filed as functional, cell-based. The settings on record: CAL-27.
A short description of test [21]: Cytotoxicity against human SKBR3 cells by Alamar Blue assay. The settings on record: SK-BR-3. It is filed as functional, cell-based.
Test [22] relates to SK-OV-3. The test is described as follows: Cytotoxicity against human SKOV3 cells by Alamar Blue assay. It is filed as functional, cell-based.
Test [23] addresses T1, Histone deacetylase 1. Put plainly: Inhibition of human recombinant HDAC1 expressed in human HEK293 cells using Ac-NH-GGK(Ac)-AMC as substrate after 180 mins by fluorescence assay relative to control.
Test [24] addresses T5, Histone deacetylase (Homo sapiens). Put plainly: Inhibition of HDAC in human HeLa cells using Boc-K(Ac)-AMC as substrate preincubated for 4 hrs before substrate addition measured after 3 hrs by fluorescence assay relative to control. It is filed as cell-based.

Where only a bound is given, the exact number is not on record here.

The IC50 is the midpoint of a concentration-inhibition curve.

T2 sequence (O15379 whole entry): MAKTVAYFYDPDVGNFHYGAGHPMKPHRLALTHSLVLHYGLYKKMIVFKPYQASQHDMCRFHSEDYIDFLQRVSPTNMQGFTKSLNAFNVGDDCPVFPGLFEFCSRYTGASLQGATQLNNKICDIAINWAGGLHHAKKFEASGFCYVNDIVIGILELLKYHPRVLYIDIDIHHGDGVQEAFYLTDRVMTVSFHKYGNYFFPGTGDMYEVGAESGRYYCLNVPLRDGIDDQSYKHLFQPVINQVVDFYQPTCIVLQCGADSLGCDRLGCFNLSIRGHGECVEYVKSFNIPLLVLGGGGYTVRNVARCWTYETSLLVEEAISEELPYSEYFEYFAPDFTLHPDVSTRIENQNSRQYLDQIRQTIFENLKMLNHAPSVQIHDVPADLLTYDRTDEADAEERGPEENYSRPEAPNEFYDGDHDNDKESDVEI
T1 sequence (Q13547 whole entry): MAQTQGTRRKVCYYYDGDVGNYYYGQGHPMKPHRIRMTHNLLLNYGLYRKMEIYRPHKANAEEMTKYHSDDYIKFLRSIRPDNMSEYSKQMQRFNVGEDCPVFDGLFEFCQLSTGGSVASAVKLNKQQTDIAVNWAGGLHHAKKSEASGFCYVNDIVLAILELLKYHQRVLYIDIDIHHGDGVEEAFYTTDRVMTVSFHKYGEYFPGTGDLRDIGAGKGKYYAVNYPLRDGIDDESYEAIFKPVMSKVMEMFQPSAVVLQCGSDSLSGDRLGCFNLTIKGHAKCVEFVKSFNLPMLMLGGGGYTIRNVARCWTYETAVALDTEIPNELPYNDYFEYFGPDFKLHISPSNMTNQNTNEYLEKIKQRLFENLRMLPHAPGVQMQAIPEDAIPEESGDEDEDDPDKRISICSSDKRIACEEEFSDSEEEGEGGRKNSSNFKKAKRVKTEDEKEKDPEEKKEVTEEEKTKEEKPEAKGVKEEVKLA
Chain of Serine/threonine-protein kinase PLK1 (P53350 whole entry): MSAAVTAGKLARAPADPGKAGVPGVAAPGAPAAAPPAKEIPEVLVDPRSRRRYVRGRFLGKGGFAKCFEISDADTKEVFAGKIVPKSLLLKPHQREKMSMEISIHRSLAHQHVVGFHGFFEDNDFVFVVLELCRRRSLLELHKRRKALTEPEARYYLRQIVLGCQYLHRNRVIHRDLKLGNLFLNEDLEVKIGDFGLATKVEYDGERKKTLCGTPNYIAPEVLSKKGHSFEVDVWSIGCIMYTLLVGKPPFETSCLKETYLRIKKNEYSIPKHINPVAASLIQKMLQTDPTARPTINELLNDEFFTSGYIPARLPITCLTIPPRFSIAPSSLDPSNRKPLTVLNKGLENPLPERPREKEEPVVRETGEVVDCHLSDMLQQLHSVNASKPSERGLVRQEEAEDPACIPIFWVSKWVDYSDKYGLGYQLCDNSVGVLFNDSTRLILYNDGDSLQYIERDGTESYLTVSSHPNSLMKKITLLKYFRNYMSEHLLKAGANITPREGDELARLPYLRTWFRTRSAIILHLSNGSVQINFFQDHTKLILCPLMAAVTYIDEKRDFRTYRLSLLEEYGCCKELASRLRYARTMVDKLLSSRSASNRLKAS
Chain of Receptor tyrosine-protein kinase erbB-2 (P04626 whole entry): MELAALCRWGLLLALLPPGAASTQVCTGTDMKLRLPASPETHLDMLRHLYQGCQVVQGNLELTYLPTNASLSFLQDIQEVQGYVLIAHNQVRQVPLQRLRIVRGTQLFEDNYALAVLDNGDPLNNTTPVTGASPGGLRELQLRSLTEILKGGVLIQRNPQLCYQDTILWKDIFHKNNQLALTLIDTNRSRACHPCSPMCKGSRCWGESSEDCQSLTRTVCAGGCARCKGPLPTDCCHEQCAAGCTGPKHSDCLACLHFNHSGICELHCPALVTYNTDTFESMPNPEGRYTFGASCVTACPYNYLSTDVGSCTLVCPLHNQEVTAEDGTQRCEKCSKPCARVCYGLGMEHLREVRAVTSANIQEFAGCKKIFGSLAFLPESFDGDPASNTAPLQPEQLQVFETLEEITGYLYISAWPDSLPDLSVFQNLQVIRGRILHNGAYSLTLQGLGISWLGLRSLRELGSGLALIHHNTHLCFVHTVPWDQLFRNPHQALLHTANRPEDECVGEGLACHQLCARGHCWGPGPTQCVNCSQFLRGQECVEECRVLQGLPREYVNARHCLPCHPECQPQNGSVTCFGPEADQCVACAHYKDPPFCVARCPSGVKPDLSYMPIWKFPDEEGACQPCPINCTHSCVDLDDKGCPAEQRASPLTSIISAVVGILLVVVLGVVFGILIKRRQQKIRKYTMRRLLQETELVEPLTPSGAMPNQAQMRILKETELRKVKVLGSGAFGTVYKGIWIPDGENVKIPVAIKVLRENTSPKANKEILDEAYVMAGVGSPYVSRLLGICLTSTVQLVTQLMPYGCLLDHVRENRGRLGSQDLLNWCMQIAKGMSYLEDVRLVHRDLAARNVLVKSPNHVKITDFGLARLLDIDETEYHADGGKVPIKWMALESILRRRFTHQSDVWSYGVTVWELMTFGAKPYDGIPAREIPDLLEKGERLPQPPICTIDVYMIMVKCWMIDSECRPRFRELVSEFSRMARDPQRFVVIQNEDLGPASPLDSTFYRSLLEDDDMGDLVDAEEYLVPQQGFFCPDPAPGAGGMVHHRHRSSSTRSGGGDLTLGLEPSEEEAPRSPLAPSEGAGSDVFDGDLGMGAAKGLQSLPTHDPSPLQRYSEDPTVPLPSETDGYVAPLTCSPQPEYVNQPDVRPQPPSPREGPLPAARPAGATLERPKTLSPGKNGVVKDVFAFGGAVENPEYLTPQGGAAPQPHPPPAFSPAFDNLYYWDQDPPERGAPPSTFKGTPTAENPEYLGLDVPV
Chain of Platelet-derived growth factor receptor beta (P09619 whole entry): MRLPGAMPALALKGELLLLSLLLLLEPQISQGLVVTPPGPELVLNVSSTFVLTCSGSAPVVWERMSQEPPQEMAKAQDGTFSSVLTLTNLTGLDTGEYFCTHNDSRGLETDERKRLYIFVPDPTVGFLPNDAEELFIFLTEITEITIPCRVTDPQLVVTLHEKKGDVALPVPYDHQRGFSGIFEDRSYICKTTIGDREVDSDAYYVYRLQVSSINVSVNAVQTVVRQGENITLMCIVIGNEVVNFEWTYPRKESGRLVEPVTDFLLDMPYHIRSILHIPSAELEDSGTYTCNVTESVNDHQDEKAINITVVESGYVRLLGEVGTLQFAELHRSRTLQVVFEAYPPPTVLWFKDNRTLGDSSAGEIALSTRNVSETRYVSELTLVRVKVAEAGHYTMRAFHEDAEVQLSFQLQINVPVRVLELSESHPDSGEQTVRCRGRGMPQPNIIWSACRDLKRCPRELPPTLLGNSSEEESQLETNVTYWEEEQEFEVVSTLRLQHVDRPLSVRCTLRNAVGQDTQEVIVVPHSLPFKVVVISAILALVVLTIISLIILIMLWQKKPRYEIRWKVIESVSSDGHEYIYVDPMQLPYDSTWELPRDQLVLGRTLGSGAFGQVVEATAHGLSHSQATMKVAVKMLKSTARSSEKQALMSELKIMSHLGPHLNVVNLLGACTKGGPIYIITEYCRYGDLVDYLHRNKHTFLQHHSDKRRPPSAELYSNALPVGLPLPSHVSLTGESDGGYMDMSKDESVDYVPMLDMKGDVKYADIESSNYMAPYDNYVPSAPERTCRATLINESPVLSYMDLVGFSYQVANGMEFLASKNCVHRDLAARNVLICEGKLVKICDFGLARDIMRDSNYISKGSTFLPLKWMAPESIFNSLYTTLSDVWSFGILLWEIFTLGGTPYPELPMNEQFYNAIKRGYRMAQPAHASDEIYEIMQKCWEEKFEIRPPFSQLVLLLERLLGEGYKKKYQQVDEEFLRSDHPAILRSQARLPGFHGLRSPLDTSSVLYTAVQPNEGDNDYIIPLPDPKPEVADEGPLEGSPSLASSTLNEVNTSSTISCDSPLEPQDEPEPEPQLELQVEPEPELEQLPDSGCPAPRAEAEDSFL
Chain of Epidermal growth factor receptor (P00533 whole entry): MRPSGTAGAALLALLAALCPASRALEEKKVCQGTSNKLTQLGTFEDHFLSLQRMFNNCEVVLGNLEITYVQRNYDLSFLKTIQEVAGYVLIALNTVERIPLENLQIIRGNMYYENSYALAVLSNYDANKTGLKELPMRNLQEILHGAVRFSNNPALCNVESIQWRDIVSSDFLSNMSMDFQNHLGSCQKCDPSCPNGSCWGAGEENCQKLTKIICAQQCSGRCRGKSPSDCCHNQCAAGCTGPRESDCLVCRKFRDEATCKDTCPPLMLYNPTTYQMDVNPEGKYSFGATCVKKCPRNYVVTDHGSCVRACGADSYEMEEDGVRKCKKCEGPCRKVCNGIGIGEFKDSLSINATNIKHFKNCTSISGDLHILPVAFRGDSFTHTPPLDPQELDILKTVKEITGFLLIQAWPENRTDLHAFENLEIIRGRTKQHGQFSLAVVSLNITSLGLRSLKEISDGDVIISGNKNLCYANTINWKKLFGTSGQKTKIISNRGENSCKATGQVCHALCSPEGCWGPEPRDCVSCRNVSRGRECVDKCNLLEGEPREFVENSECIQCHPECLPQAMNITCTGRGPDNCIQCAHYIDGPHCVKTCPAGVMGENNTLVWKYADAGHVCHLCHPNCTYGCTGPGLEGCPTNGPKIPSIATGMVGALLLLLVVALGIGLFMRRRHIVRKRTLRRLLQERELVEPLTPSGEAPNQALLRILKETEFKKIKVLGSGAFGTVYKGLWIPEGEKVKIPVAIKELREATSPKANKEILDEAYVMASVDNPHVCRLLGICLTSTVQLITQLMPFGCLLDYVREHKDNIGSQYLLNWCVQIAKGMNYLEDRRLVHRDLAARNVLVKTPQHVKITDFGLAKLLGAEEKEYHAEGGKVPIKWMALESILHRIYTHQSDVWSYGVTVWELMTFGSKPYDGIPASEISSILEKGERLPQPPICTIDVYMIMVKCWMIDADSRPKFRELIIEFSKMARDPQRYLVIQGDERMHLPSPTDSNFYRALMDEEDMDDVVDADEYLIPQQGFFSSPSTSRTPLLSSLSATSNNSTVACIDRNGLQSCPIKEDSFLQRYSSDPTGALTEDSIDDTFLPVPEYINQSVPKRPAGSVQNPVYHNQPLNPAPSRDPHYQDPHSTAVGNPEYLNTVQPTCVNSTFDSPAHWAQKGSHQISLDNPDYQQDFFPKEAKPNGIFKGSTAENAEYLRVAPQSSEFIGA

Regarding `C#Cc1cccc(Nc2ncnc3ccc(S(=O)(=O)n4ccc(/C=C/C(=O)Nc5ccccc5N)c4)cc23)c1`, the IC50 in test [1] was 7.2 µM; in test [2], 4.24 µM; in test [3], 0.091 µM; in test [4], 0.84 µM; in [5] it was more than 32 µM; in test [6] it was more than 32 µM. Besides, the IC50 is 1.3 µM in [9]; 2.9 µM in [10]; 16 µM in test [11]; 41 µM in [12]; 15 µM in test [13]; 17 µM in [14]. The IC50 in test [15] worked out at 24 µM; in test [16], 27 µM; in test [17], 3.45 µM; in test [18] it was 3.7 µM; in test [19], 3.7 µM; in test [20] it was 2.5 µM. Besides, the IC50 in [21] was determined as 27 µM; in [22] it was 5.7 µM. In addition, the Imax in test [7] stood at 50%; in [8] it was 75%.
Consider `C#Cc1cccc(Nc2ncnc3cc(NC(=O)c4ccc(C(=O)Nc5ccccc5N)s4)ccc23)c1`, for which the IC50 in [1] was 0.38 µM; in test [2], more than 5.01 µM; in [3], 2.2 µM; in test [4], 0.77 µM; in [5], more than 32 µM; in [6] it was more than 32 µM. Besides, the IC50 in [17] is 1.8 µM; in test [18] it was 0.82 µM; in test [19], 0.96 µM; in test [20], 1.2 µM; in [21], 33 µM; in test [22] it was 30 µM. The Imax in [7] was 30%; in test [23] it was 75%; in [8], 70%.
As to `C#Cc1cccc(Nc2ncnc3ccc(NC(=O)c4ccc(C(=O)Nc5ccccc5N)nc4)cc23)c1`, the IC50 is more than 32 µM in test [1]; more than 15.8 µM in test [2]; 0.31 µM in test [3]; 0.44 µM in test [4]; more than 32 µM in test [5]; more than 32 µM in test [6]. Also, the IC50 in [17] is 21.5 µM; in test [18], 39 µM; in test [19] it was more than 16 µM; in test [20], 8 µM; in [21], 11 µM; in [22] it was 7.7 µM. In addition, in test [23], the Imax came out at 70%.
Consider `C#Cc1cccc(Nc2ncnc3cc(NC(=O)c4ccc(C(=O)Nc5ccccc5N)cc4)ccc23)c1`, for which the IC50 in test [1] was 0.2 µM; in [2] it was 0.78 µM; in [3] it was 0.8 µM; in test [4], 0.5 µM; in test [5], more than 32 µM; in [6], more than 32 µM. Besides, the IC50 was 1.7 µM in test [17]; 1.4 µM in test [18]; 1.6 µM in test [19]; 0.46 µM in [20]; 39 µM in test [21]; more than 50 µM in test [22]. In addition, the Imax in [7] and in test [24] was 30% in each case.

The record behind these values is ChEMBL document CHEMBL3217617 (Medchemcomm, 2012).
